{"source": "patent US5624894A", "about": "“Brain-enhanced delivery of neuroactive peptides by sequential metabolism” (University of Florida, priority 1995, dated 1997)", "key": {"[1]": {"assay": "Stability and water solubility observed during synthesis", "assay_type": "physicochemical", "settings": "reaction work-up", "procedure": "In all cases before the N-alkylation step, the intermediates were purified by chromatography. In order to avoid side reactions, the N-methylations were performed at room temperature (20°-25° C.) with a slight excess of alkylating agent. The reductions with sodium dithionite were accomplished by cooling at 0°-5° C. in oxygen-free conditions at a pH of approximately 7. The quaternary salts are fairly stable when isolated, but the dihydropyridine derivatives are easily oxidized or hydroxylated and in acid conditions react readily with water.\nTrigonellyl-Ala-Tyr-Arg-cholesteryl ester methylsulfate (0.09 g, […]) (30) was dissolved in 20 ml of H2 O, then NaHCO3 (0.05 g, […]) and Na2 S2 O4 (0.07 g, 0.04 mmol) were added in small portions while stirring at 0° C. The reaction vessel was stoppered under nitrogen and allowed to stir for 1.5 hours at 0° C. […] The extraction was repeated 3 times, the organic layers were combined and the solvent was removed in vacuo, to afford 0.056 g of compound (31), yield 62.2%."}, "[2]": {"system": "opioid ([^3 H]diprenorphine-based competitive assay)", "assay": "[3H]diprenorphine-based competitive assay", "assay_type": "binding", "settings": "read-out: 50 percent inhibitory concentration (IC50)", "source_text": "The test procedure is described hereinbelow following the EXAMPLES, and the results are shown in Tables 5-8 and FIGS. 3-5 for (A) where [SEQ. ID NO. 27] YAGFL is [D-Ala^2 ]-[D-Leu]-enkephalin; i.e., Compound (64) in the EXAMPLES. The targetor-peptide conjugates (C), such as compound (70), are weak opioids. The 50 percent inhibitory concentration (IC50) measured with [^3 H]diprenorphine-based competitive assay is about 10^-7 M, an order of magnitude less than the IC50 of about 10^-8 M for the enkephalin analogs. At the measured 500 to 700 pmol/g tissue concentration, even these weak opioids exert significant analgesic activity. The enkephalin analog may also be released slowly from the targetor-peptide conjugate in vivo, and contribute to the CNS activity. No analgesia was observed after the intravenous administration of the unmanipulated enkephalins, which are membrane-impermeable and unprotected toward various peptide-degrading enzymes, nor after the injection of the partially conjugated (either with the targetor or with cholesteryl) peptides. Modification of the spacer (S) function may allow for the peptidolytic release of the parent peptide from the conjugate at a desired rate, depending on the therapeutic objective."}, "Swiss Webster mice": {"system": "Swiss Webster mice", "assay": "Methohexital (barbiturate)-induced sleeping time in mice after i.v. injection", "assay_type": "in vivo", "settings": "for methohexital induced sleeping time, individual animals / methohexital induced sleeping time, mean: methohexital 90 mg/kg i.p. 10 min later", "source_text": "Two representative chemical delivery systems (CDS's) of the invention for the TRH analog [Leu^2 ]-TRH, i.e., compound (8) of Scheme I/EXAMPLE 8, which has an alanine spacer, and compound (12) of Scheme II/Example 12, which has an alanine-alanine spacer, were studied for their effects on the barbiturate-induced sleeping time in mice. TRH is known to antagonize the reduction in cholinergic activity induced by barbiturates. Thus, the activational effects of the CDS's for TRH analogs on cholinergic neurons can be measured by quantitating the antagonism of pentobarbital-induced sleeping and barbiturate-induced reduction in cholinergic neuronal activity.\nSwiss Webster mice weighing 30±2 g were used. The compounds were dissolved in a vehicle consisting of DMSO, ethanol and 50% (w/w) 2-hydroxypropyl-β-cyclodextrin at a ratio of 1:2:1 (15 mg/ml). CDS's at a dose of 30 mg/kg were injected in the animals through the tail vein. Vehicle only and an equimolar dose of TRH and [Leu^2 ]-TRH, 10 mg/kg, were also administered to compare CNS activities. Ten minutes after i.v. injection of the compound, each animal received an intraperitoneal injection of sodium methohexital solution (45 mg/ml) at a dose of 90 mg/kg. The sleeping time was recorded as the time elapsed from the onset of loss of the […] until the reflex was regained. Each compound and the vehicle control were tested on 5-11 animals. The statistical analysis was performed using the Student's t test."}, "[3]": {"system": "brain peptidases (rat brain homogenate)", "assay": "Incubation of targetor-peptide conjugate in rat brain homogenate", "assay_type": "in vitro ADME", "settings": "30 nmol in 1 ml 20% rat brain homogenate, pH 7.4 Tris, 37° C., 0.5 and 2 hours", "procedure": "Compound (C) (30 nmol) was added to one ml rat brain homogenate (20%, w/w, in pH 7.4 Tris buffer), and the mixture was incubated at 37° C. Aliquots (250 t l) were removed 0.5 and 2 hours after incubation, and electrospray ionization mass spectra were obtained after sample preparation identical to that described above. Proteolytic cleavages are identified by the m/z of the products, and the corresponding structures are shown in the Scheme."}, "[4]": {"assay": "Detection of peptide conjugates in rat brain tissue and blood by electrospray ionization MS after i.v. compound (A)", "assay_type": "in vivo", "settings": "15 minutes after i.v. compound (A) for [D-Ala2]-Leu-enkephalin, 20 mg/kg, rats; estimated", "source_text": "This approach has been evaluated by using electrospray ionization mass spectrometry, which provides the specificity necessary to monitor the biotransformation processes that occur after delivery. In vivo distribution studies with rats as experimental models (described in detail below) have shown that, upon systemic administration, the modified peptide can partition by passive, nonsaturable transport into the brain which is inaccessible to the unmanipulated compound. At this first step, the modified peptide simply enters the brain because of its lipoidal nature. The targetor moiety, however, undergoes an enzyme-mediated oxidation analogous to the endogenous NAD(P)H.revreaction.NAD(P)^+ coenzyme associated with numerous oxidoreductases and cellular respiration. […]\nDetection of the peptide conjugates in the brain tissue by electrospray ionization mass spectrometry was carried out after systemic administration of compound (A). […] The solvent was removed under a dry nitrogen stream, and the reconstituted (in 50% methanol plus 50% water containing 3% acetic acid) sample was analyzed by electrospray ionization mass spectrometry at 5 μl/minute flow rate. […] Quantification was based on comparing the peak intensity to that obtained from the brain sample of an untreated animal spiked with a known amount of compound (C)."}, "[5]": {"settings": "ACTH4-9 analog, behavioral effects; cited from earlier work"}, "[6]": {"settings": "Table 1 experiment, 10 mg/kg i.v. (equimolar), mice"}, "[7]": {"settings": "Table 2 experiment, 10 mg/kg i.v., mice"}}, "note": "pIC50: −log10 of the molar value. Where “and” joins values, the source holds several entries; their conditions need not be identical. Identical values can stand only once. Square brackets hold non-standard residues; d marks the D form. Ends that are not written are not given here. Peptide text beside a SMILES is read from it. * marks the point of attachment. pGlu = O=C1CC[C@@H](C(=O)O)N1; X1 = C[n+]1cccc(C(=O)*)c1", "data": [{"compound": "CC(C)CCC[C@@H](C)[C@H]1CC[C@H]2[C@@H]3CC=C4C[C@@H](OC(=O)[C@H](CCCNC(=N)N)NC(=O)[C@H](Cc5ccc(O)cc5)NC(=O)[C@H](C)NC(=O)C5=CN(C)C=CC5)CC[C@]4(C)[C@H]3CC[C@]12C", "note": "[(31), 1,4-Dihydrotrigonellyl-Ala-Tyr-Arg-Cholesteryl Ester]", "values": [{"measurement": "solubility in water (in words)", "setting": "[1]", "value": "not soluble in water"}]}, {"compound": "CC(C)C[C@@H](NC(=O)[C@H](Cc1ccccc1)NC(=O)CNC(=O)[C@@H](C)NC(=O)[C@H](Cc1ccc(O)cc1)NC(=O)[C@H](C)NC(=O)c1ccc[n+](C)c1)C(=O)O", "note": "[(70), Trigonellyl-Ala-Tyr-D-Ala-Gly-Phe-D-Leu-OH Methylsulfate] (X1-AY[dA]GF[dL]-OH)", "values": [{"measurement": "pIC50", "setting": "[2]", "value": "~7.00"}]}, {"compound": "CC(C)C[C@H](NC(=O)[C@@H]1CCC(=O)N1)C(=O)N1CCC[C@H]1C(N)=O", "note": "[[Leu^2]-TRH, PyroGlu-Leu-Pro-NH2] ([pGlu]-Leu-Pro-NH2)", "values": [{"measurement": "methohexital induced sleeping time, individual animals", "setting": "Swiss Webster mice; [6]", "value": "33.95 min and 37.37 min and 28.22 min and 15.03 min and 33.63 min and 20.90 min and 27.97 min and 36.80 min"}, {"measurement": "methohexital induced sleeping time, mean", "setting": "Swiss Webster mice; [6]", "value": 29.23, "unit": "min"}, {"measurement": "methohexital induced sleeping time, individual animals", "setting": "Swiss Webster mice; [7]", "value": "15.18 min and 11.95 min and 12.47 min and 11.17 min and 8.53 min and 8.02 min"}, {"measurement": "methohexital induced sleeping time, mean", "setting": "Swiss Webster mice; [7]", "value": 11.22, "unit": "min"}, {"measurement": "effect on barbiturate-induced sleeping time (in words)", "setting": "Swiss Webster mice; first experiment (Table 1), compared to control or [Leu2]-TRH", "value": "no significant difference between the control and [Leu^2 ]-TRH"}, {"measurement": "behavior / symptoms of animals after i.v. administration", "setting": "Swiss Webster mice; mice, i.v.", "value": "a few animals (1-2) showed the same symptoms as in the case of TRH"}, {"measurement": "effect on sleeping time (in words)", "setting": "Swiss Webster mice; second experiment (Table 2), compared to TRH or vehicle control", "value": "significantly reduced"}]}, {"compound": "Compound (C): locked-in targetor-peptide conjugate (m/z 760) of [D-Ala2]-Leu-enkephalin, formed from compound (B) by cleavage of the cholesteryl ester ({N‑methylnicotinoyl}-AY[dA]GFL; not fully specified)", "values": [{"measurement": "processing in rat brain homogenate (in words)", "setting": "[3]", "value": "processed by the brain peptidases similarly to the unmanipulated compound"}, {"measurement": "level in brain tissue", "setting": "[4]", "value": "500-700 picomole/g tissue"}]}, {"compound": "Org 2766: very active ACTH4-9 analog with oxidized methionine at 4, D-lysine at 8, phenylalanine at 9 (MEHF[dK]F; not fully specified (residue 1); printed as Met Glu His Phe Lys Phe)", "values": [{"measurement": "potentiation", "setting": "[5]", "value": 1000, "unit": "fold"}]}]}
